# Laboratory results: US7687054B2, “Biocompatible compounds for sustained release pharmaceutical drug delivery systems” (3M Innovative Properties Company, priority 1997, dated 2010)
# Counter-ions that a name gives are not always drawn. Like-named read-outs stand apart in the source and are kept apart here.
# Key:
# [1] = Glass transition temperature (Tg) by modulated DSC; type: physicochemical; conditions: PLA/Drug mole/mole ratio 0 (drug alone)
# Description: (§1) Thermal properties (glass transition, melting, and degradation points; Tg, Tm, Tdeg) were determined utilizing a modulated differential scanning calorimeter (DSC) TA Instruments, New Castle, Del. A linear heating rate of 5° C./minute was applied, with a perturbation amplitude of ±1° C. every 60 seconds. […] The glass transition temperatures (Tg) reported were taken at the midpoint in the change in heat capacity over the step transition, and were evaluated using the reversing signal curve.
# It will also be recognized that other biologically acceptable molecules (e.g., excipients) which are not the active agent, may be added to improve the matrix material's properties.
# [2] = Degradation temperature by modulated DSC (thermal stability)
# Description: as §1
# The salts were prepared by mixing suitable solutions (e.g., acetone, chloroform, methanol) of the drug and PLA in the desired ratio, followed by evaporation and extensive drying under high vacuum to remove all traces of solvent. […] Bioavailability frequently correlates with the water solubility of the drug-complex. The water solubility of the PHAs is dependent on the molecular weight and the nature of the end groups.
# The molecular weight of the acylated polymer necessary to provide an insoluble salt is dependent both on the nature of the drug and the end-group used. It will be recognized that the characteristics (MW, distribution, chemical nature, endgroups, etc.) of the polymer counter-ion will be important to the ultimate pharmacokinetics of the drug.
# [3] = system: antigen (ovalalbumin) challenged guinea pigs; assay: Guinea pig early phase anaphylactic response test (pulmonary dynamic compliance); type: in vivo, male Hartley guinea pigs; conditions: inhalation
# Description: Pat. […] Pat. […] Typical inhalation exposure systems were comprised of an aerosol generator, e.g., an MDI, a 150 ml aerosol expansion chamber, and a trachea cannula. Each guinea pig received 4 actuations containing 32 ug drug/actuation. The guinea pigs were antigen (ovalalbumin) challenged at varied times and pulmonary dynamic compliance was tested using a Buxco pulmonary mechanics analyzer (Buxco Electronics, Sharon Conn.) according to the method of Amdur and Mead (The American Journal of Physiology, Vol. 92, pp. 364-368 (1958)).
# [4] = system: tumor necrosis factor (TNF); assay: TNF levels in lung lavage and serum after inhalation of IMQ MDI formulations; type: in vivo, mouse; conditions: mice
# Description: Typically, the animals were exposed to 20 actuations per minute for 25 minutes of an MDI generated 2 micron average MMAD aerosol. Lung lavage and bleeding of the exposed mice, were performed by standard methods known to those skilled in the art and tumor necrosis factor (TNF) analyses were performed by an ELISA method specific for TNF in the mouse (Genzyme Immunobiologicals, Cambridge, Mass.). TNF is a marker for this drug's activity. Pulmonary therapy application of IMQ prefers drug activity localized in the lung. Therefore, it was desirable to maintain high levels of drug in the lung and minimize systemic drug. However, this formulation and method could also clearly be used to provide long term release of IMQ or analogous compounds for systemic applications. The lavage numbers are measurements of TNF levels in the lung while the serum levels measure systemic TNF levels.
# [5] = PLA/Drug molar ratio 0 (drug alone)
compound,measurement,setting,value
CC(C)(C)NCC(O)c1ccc(O)c(CO)c1 (stereo not drawn) [Albuterol base],Tg,[1],48.9 °C
[H]/N=C(\N/C(=N/[H])NCCCCCCNC(=N)NC(=N)Nc1ccc(Cl)cc1)Nc1ccc(Cl)cc1 [Chlorhexidine base],Degradation Temperature,[2]; [5],>225 °C
same,Tg,[1],38.5 °C
CCC(CC)N(O)C(=O)Nc1ccccc1 [Example 5LO],Percent Inhibition of Bronchoconstriction,[3]; challenge 15 minutes after dosing,67%
same,Percent Inhibition of Bronchoconstriction,[3]; challenge 30 minutes after dosing,48%
same,Percent Inhibition of Bronchoconstriction,[3]; challenge 60 minutes after dosing,4%
Cc1nc2c(N)nc3ccccc3c2n1CC(C)(C)O [IMQ alone],"TNF level, Lavage",[4]; 0 hours after dosing,40 pg/mL
same,"TNF level, Serum",[4]; 0 hours after dosing,13 pg/mL
same,"TNF level, Lavage",[4]; 1 hour after dosing,105 pg/mL
same,"TNF level, Serum",[4]; 1 hour after dosing,6 pg/mL
same,"TNF level, Lavage",[4]; 2 hours after dosing,213 pg/mL
same,"TNF level, Serum",[4]; 2 hours after dosing,193 pg/mL
same,"TNF level, Lavage",[4]; 4 hours after dosing,144 pg/mL
same,"TNF level, Serum",[4]; 4 hours after dosing,577 pg/mL
CCN(CC)CC(=O)Nc1c(C)cccc1C [Lidocaine HCl],Tg,[1]; HCl,30.7 °C
CCN(CC)CC(=O)Nc1c(C)cccc1C [Lidocaine],Degradation Temperature,[2]; [5],159 °C
same,Tg,[1],none
CN(C)[C@@H]1C(O)=C(C(N)=O)C(=O)[C@@]2(O)C(O)=C3C(=O)c4c(O)cccc4[C@@](C)(O)[C@H]3C[C@@H]12 [Tetracycline HCl],Tg,[1],50.5 °C
CN(C)[C@@H]1C(O)=C(C(N)=O)C(=O)[C@@]2(O)C(O)=C3C(=O)c4c(O)cccc4[C@@](C)(O)[C@H]3C[C@@H]12 [Tetracycline],Degradation Temperature,[2]; [5],179 °C
Albuterol sulfate,Tg,[1],49 °C
acetyl-poly (L-lactic acid) [Example 7],Degradation Temperature,[2],>225 °C
